Test system: MDA-MB-231 breast cancer cells
Assay: MTT cytotoxicity assay, MDA-MB-231 cells
Type: cell-based, human
Details: for IC50: 24 h incubation, MTT, average of at least three experiments (±SD); for Cytotoxicity (in words): MDA-MB-231, MTT, 24 h
Procedure: The MDA-MB-231 and MCF-7 human breast cancer cells were purchased from ATCC. The MDA-MB-231 and MCF-7 cells were grown in Dulbecco's modified Eagles' medium (DMEM high glucose) (Capricorn Scientific) at 37°C in 5% CO2 supplemented with 10% fetal bovine serum (Capricorn Scientific). HDF cells were purchased from Merck and were grown in the fibroblast growth medium. All cells were adherent in monolayers and, upon confluence, were washed with phosphate buffer saline (PBS) and harvested by digestion with trypsin-EDTA 0.05% (v/v). The cells were suspended and transferred into new, sterile, culture flasks for maintenance or seeded in sterile test microplates for different assays. All cells were manipulated under aseptic conditions in a flow chamber.
The cells were adherent in monolayers and, upon confluence, were harvested by digestion with trypsin. The cytotoxicity of the complexes against the tumour cells was assessed using the colorimetric assay MTT […], which evaluates the metabolic activity of viable cells. This assay measures the conversion of yellow tetrazolium into purple formazan by an active mitochondrial dehydrogenase in living cells. For this purpose, the cells (10–20 × 10^3 in 200 μL of the medium) were seeded into 96-well plates and incubated in a 5% CO2 incubator at 37°C. The cells were settled for 24 h followed by the addition of a dilution series of the complexes in a medium (200 μL). The complexes were first solubilized in 100% DMSO, given a 10 mM stock solution, and then in a medium within the concentration range of 0.1–100 µM. […] After 24 h of incubation, the treatment solutions were removed by aspiration, and MTT solution (200 μL, 0.5 mg·mL^−1 in PBS) was added to each well. After 3 h at 37°C/5% CO2, the solution was removed, and the purple formazan crystals formed inside the cells were dissolved in DMSO (200 μL) by thorough shaking. The cellular viability was evaluated by measuring the absorbance at 570 nm by using a microplate spectrophotometer. The IC50 values were obtained by dose-response curves using the GraphPad Prism software (vs. 5).
The MDA-MB-231 and MCF-7 human breast cancer cells were purchased from ATCC. MDA-MB-231 and MCF-7 cells were grown in Dulbecco’s modified Eagles’s medium (DMEM high glucose) (Capricorn Scientific) at 37 °C in 5% CO2 supplemented with 10% fetal bovine serum (Capricorn Scientific). All cells were adherent in monolayers and, upon confluence, were washed with phosphate buffer saline (PBS) and harvested by digestion with Trypsin-EDTA 0.05% (v/v). The cells were suspended and transferred into new, sterile, culture flasks, for maintenance or seeded in sterile test microplates for different assays. All cells were manipulated under aseptic conditions in a flow chamber.
The cells were adherent in monolayers and, upon confluency, were harvested by digestion with trypsin. The cytotoxicity of the complexes against the tumour cells was assessed using the colorimetric assay MTT […], which evaluate the metabolic activity of viable cells. This assay measures the conversion of the yellow tetrazolium into purple formazan by an active mitochondrial dehydrogenase in living cells. For this purpose, cells (10-20 × 10^3 in 200 μL of medium) were seeded into 96-well plates and incubated in a 5% CO2 incubator at 37 °C. The cells were settled for 24 h followed by the addition of a dilution series of the complexes in medium (200 μL). The complexes were first solubilized in 100% DMSO, given a 10 mM stock solution, and then in medium within the concentration range of 0.1–100 µM. […] After 24 h of incubation, the treatment solutions were removed by aspiration, and MTT solution (200 μL, 0.5 mg·mL^-1 in PBS) was added to each well. After 3 h at 37 °C/5% CO2, the solution was removed, and the purple formazan crystals formed inside the cells were dissolved in DMSO (200 μL) by thorough shaking. […]

SMILES	IC50 (Homo sapiens, MDA-MB-231) [µM]	IC50 [µM]	Cytotoxicity (in words)
C1N2CN3CN1CP(C2)C3 [Compound 1, 1,3,5-triaza-7-phosphaadamantane]	> 100		
C[N+]12CN3CN(CP(C3)C1)C2 [Compound 2, N-methyl-1,3,5-triaza-7-phosphaadamantane]	> 100		
C[N+]12CN3CP(C1)C[N+](C)(C3)C2 [Compound 3, N,N′-dimethyl-1,3,5-triaza-7-phosphaadamantane]	> 100		
[Cl][Ru+]([P]12CN3CN(CN(C3)C1)C2)[P]12CN3CN(CN(C3)C1)C2.c1cc[cH-]c1 [Compound 4, [RuClCp(PTA)2]]		> 100	noncytotoxic
[Cl][Ru+]([P]12CN3CN(CN(C3)C1)C2)[P](c1ccccc1)(c1ccccc1)c1ccccc1.c1cc[cH-]c1 [Compound 5, [RuClCp(PPh3)(PTA)]]		60 ± 19	Moderate cytotoxicity
